Our source for the IC50 values is US20230233569A1 (Revolution Medicines, Inc., priority 2020, published 2023).

Test in all cases: Ras-Raf disruption / FRET / MOA assay (BRAF RBD)
Holding throughout (format): biochemical

The target in one test is KRAS G12D (Homo sapiens, UniProt P01116+P62937, G12D). The settings on record: Ras-Raf disruption, with Cyclophilin A; read-out: KRAS G12D FRET data IC50. The method in brief:
(§1)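 TR-FRET in 25 mM HEPES pH 7.3, 100 mM NaCl, 5 mM MgCl2, 0.1% BSA, 0.002% Tween20 with 25 μM Cyclophilin A, 12.5 nM His6-Ras-GMPPNP, 50 nM GST-BRAF RBD; compound 10-point 3-fold series from 30 μM. After 3 h at 25 °C, Eu anti-His/APC anti-GST added for 1.5 h; IC50 from ratio decrease versus DMSO.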

A further test has as its target KRAS G12S (Homo sapiens, UniProt P01116+P62937, G12S). The settings on record: Ras-Raf disruption, with Cyclophilin A; read-out: KRAS G12S FRET data IC50. The method in brief: as §1
Another test concerns the target KRAS G12V (Homo sapiens, UniProt P01116+P62937, G12V). The settings on record: Ras-Raf disruption, with Cyclophilin A; read-out: KRAS G12V FRET data IC50. The method in brief:
as §1

The target in another test is KRAS G13C (Homo sapiens, UniProt P01116+P62937, G13C). The settings on record: Ras-Raf disruption, with Cyclophilin A; read-out: KRAS G13C FRET data IC50. The method in brief:
as §1

The target of a further test is KRAS G13D (Homo sapiens, UniProt P01116+P62937, G13D). The settings on record: Ras-Raf disruption, with Cyclophilin A; read-out: KRAS G13D FRET data IC50. The method in brief:
as §1

A further test concerns the target KRAS Q61H (Homo sapiens, UniProt P01116+P62937, Q61H). As to conditions: KRAS Q61H; read-out: KRAS Q61H FRET data IC50. The method in brief: as §1
The target in another test is KRAS WT (Homo sapiens, UniProt P01116+P62937). As to conditions: Ras-Raf disruption, with Cyclophilin A; read-out: KRAS WT FRET data IC50. The method in brief: as §1
The target in the next test is NRAS G12C (Homo sapiens, UniProt P01111+P62937, G12C). The settings on record: NRAS G12C; read-out: NRAS G12C FRET data IC50. The method in brief: as §1
For a further test, the target named is NRAS Q61K (Homo sapiens, UniProt P01111+P62937, Q61K). The settings on record: NRAS Q61K; read-out: NRAS Q61K FRET data IC50. The method in brief:
as §1

The target of another test is NRAS Q61R (Homo sapiens, UniProt P01111+P62937, Q61R). The settings on record: NRAS Q61R; read-out: NRAS Q61R FRET data IC50. The method in brief: as §1
For a further test, the target named is NRAS WT (Homo sapiens, UniProt P01111+P62937). The settings on record: NRAS WT; read-out: NRAS WT FRET data IC50. The method in brief: as §1
In the next test the target is KRAS G12C (Homo sapiens, UniProt P01116+P62937, G12C). As to conditions: Ras-Raf disruption, with Cyclophilin A; read-out: KRAS G12C FRET data IC50. The method in brief:
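His6-K-Ras G12C-GMPPNP (12.5 nM), GST-BRAF RBD (50 nM) and tagless Cyclophilin A (25 μM) incubated 3 h at 25 °C with compound (10-point 3-fold series from 30 μM), pH 7.3 HEPES buffer. Anti-His Eu/anti-GST APC added for 1.5 h; decreased TR-FRET ratio vs DMSO gives IC50.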

Sequence of KRAS Q61H (P01116 1-169 isoform P01116-2 Q61H limits assumed): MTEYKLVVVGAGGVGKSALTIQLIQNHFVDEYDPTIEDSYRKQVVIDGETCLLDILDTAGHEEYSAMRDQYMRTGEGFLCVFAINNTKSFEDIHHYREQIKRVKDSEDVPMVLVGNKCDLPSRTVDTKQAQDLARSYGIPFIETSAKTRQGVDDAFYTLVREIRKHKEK
Sequence of KRAS Q61H (P62937 whole entry): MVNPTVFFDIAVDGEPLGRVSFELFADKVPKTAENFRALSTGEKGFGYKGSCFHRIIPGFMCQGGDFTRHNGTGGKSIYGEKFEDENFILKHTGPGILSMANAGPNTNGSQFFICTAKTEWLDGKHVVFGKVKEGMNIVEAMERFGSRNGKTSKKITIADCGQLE
Sequence of NRAS Q61R (P01111 whole entry Q61R): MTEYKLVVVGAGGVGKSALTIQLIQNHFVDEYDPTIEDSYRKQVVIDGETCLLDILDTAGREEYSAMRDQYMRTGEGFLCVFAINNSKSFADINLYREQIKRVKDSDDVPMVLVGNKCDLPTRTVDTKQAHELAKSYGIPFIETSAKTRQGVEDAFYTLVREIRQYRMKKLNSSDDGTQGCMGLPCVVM
Sequence of NRAS Q61R (P62937 whole entry): as the sequence (P62937 whole entry) above
Sequence of NRAS WT (P01111 whole entry): as the sequence (P01111 whole entry Q61R) above, with R61Q counted along it
Sequence of NRAS WT (P62937 whole entry): as the sequence (P62937 whole entry) above
Sequence of KRAS WT (P01116 1-169 isoform P01116-2 limits assumed): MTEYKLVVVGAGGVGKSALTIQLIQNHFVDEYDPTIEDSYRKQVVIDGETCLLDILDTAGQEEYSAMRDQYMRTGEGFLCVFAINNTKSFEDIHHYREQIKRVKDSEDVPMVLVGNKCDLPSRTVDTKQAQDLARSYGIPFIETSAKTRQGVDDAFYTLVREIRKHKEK
Sequence of KRAS WT (P62937 whole entry): as the sequence (P62937 whole entry) above
Sequence of KRAS G13D (P01116 1-169 isoform P01116-2 G13D limits assumed): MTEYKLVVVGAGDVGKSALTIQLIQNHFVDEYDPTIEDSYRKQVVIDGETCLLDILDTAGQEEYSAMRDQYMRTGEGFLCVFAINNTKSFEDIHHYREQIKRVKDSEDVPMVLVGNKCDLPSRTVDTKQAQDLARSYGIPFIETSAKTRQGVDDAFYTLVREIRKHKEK
Sequence of KRAS G13D (P62937 whole entry): as the sequence (P62937 whole entry) above
Sequence of KRAS G12V (P01116 1-169 isoform P01116-2 G12V limits assumed): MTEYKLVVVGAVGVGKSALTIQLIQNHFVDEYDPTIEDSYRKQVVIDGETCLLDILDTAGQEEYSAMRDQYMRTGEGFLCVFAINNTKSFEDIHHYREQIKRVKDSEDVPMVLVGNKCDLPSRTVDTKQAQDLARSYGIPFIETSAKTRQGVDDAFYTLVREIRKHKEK
Sequence of KRAS G12V (P62937 whole entry): as the sequence (P62937 whole entry) above
Sequence of NRAS G12C (P01111 whole entry G12C): as the sequence (P01111 whole entry Q61R) above, with G12C, R61Q counted along it
Sequence of NRAS G12C (P62937 whole entry): as the sequence (P62937 whole entry) above
Sequence of KRAS G12C (P01116 1-169 isoform P01116-2 G12C limits assumed): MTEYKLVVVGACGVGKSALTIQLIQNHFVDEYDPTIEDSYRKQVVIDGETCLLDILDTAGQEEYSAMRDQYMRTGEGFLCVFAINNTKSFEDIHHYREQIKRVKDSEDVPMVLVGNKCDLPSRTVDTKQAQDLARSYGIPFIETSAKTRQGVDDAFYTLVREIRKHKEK
Sequence of KRAS G12C (P62937 whole entry): as the sequence (P62937 whole entry) above
Sequence of NRAS Q61K (P01111 whole entry Q61K): as the sequence (P01111 whole entry Q61R) above, with R61K counted along it
Sequence of NRAS Q61K (P62937 whole entry): as the sequence (P62937 whole entry) above
Sequence of KRAS G12D (P01116 1-169 isoform P01116-2 G12D limits assumed): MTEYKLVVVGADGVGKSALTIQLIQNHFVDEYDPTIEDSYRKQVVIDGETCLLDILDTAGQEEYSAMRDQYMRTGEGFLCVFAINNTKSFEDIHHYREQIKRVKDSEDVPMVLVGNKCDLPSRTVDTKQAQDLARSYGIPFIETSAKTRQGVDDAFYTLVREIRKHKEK
Sequence of KRAS G12D (P62937 whole entry): as the sequence (P62937 whole entry) above
Sequence of KRAS G13C (P01116 1-169 isoform P01116-2 G13C limits assumed): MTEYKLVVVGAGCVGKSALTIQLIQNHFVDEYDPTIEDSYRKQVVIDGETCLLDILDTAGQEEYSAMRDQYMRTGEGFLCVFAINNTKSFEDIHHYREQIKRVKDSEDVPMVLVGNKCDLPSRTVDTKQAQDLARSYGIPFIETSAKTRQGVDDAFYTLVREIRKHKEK
Sequence of KRAS G13C (P62937 whole entry): as the sequence (P62937 whole entry) above
Sequence of KRAS G12S (P01116 1-169 isoform P01116-2 G12S limits assumed): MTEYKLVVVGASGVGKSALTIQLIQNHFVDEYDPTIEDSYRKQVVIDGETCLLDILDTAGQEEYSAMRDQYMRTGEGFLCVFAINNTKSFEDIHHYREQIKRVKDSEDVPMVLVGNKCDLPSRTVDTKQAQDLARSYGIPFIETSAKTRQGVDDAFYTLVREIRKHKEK
Sequence of KRAS G12S (P62937 whole entry): as the sequence (P62937 whole entry) above

In general, IC50 refers to the concentration needed to halve the response being measured. Regarding `CCn1c(-c2cccnc2[C@H](C)OC)c2c3cc(ccc31)-c1cc(O)cc(c1)C[C@H](NC(=O)[C@H](C(C)C)N(C)C(=O)[C@H]1C[C@H]3CC[C@@H](C1)N3C(=O)[C@H]1CN1)C(=O)N1CCC[C@H](N1)C(=O)OCC(C)(C)C2` (atropisomer, axis not shown) [Example 245], the IC50 is 100 to 1000 nM at KRAS G12D; 100 to 1000 nM on KRAS G12S; 100 to 1000 nM on KRAS G12V; 10 to 100 nM at KRAS G13C; 100 to 1000 nM at KRAS G13D; 10 to 100 nM on KRAS Q61H. Moreover, the IC50 at KRAS WT fell in the range of 10 to 100 nM; at NRAS G12C, 10 to 100 nM; on NRAS Q61K it was 100 to 1000 nM; at NRAS Q61R, 100 to 1000 nM; on NRAS WT it was 10 to 100 nM; at KRAS G12C it was 10 to 100 nM.
In the case of `CCn1c(-c2cccnc2[C@H](C)OC)c2c3cc(ccc31)-c1cc(O)cc(c1)C[C@H](NC(=O)[C@H](C(C)C)N(C)C(=O)[C@H]1C[C@H]3CC[C@@H](C1)N3C(=O)[C@@H]1CN1)C(=O)N1CCC[C@H](N1)C(=O)OCC(C)(C)C2` (atropisomer, axis not shown) [Example 246], the IC50 was 1000 to 10000 nM at KRAS G12D; 100 to 1000 nM at KRAS G12S; 100 to 1000 nM at KRAS G12V; 10 to 100 nM at KRAS G13C; 100 to 1000 nM at KRAS G13D; below 10 nM at KRAS Q61H. Moreover, the IC50 lay in the range of 10 to 100 nM at KRAS WT; 10 to 100 nM on NRAS G12C; 10 to 100 nM at NRAS Q61K; 100 to 1000 nM on NRAS Q61R; 10 to 100 nM at NRAS WT; 10 to 100 nM on KRAS G12C.
On to `CCn1c(-c2cccnc2[C@H](C)OC)c2c3cc(ccc31)-c1cc(O)cc(c1)C[C@H](NC(=O)[C@H](C(C)C)N(C)C(=O)[C@H]1CCCCN(C(=O)[C@H]3CN3)C1)C(=O)N1CCC[C@H](N1)C(=O)OCC(C)(C)C2` (atropisomer, axis not shown) [Example 247], for which the IC50 on KRAS G12D lay within 1000 to 10000 nM; at KRAS G12S, 100 to 1000 nM; on KRAS G12V, 100 to 1000 nM; at KRAS G13C, 100 to 1000 nM; at KRAS G13D it was 100 to 1000 nM; at KRAS Q61H it was 100 to 1000 nM. Moreover, the IC50 on KRAS WT lay within 100 to 1000 nM; at NRAS G12C, 10 to 100 nM; on NRAS Q61K, 1000 to 10000 nM; at NRAS Q61R it was 1000 to 10000 nM; at NRAS WT, 100 to 1000 nM; at KRAS G12C, 10 to 100 nM.
As for `CCn1c(-c2cccnc2[C@H](C)OC)c2c3cc(ccc31)-c1cc(O)cc(c1)C[C@H](NC(=O)[C@H](C(C)C)N(C)C(=O)N1C[C@@H]3[C@H]1CCN3C(=O)[C@H]1CN1)C(=O)N1CCC[C@H](N1)C(=O)OCC(C)(C)C2` (atropisomer, axis not shown) [Example 250], the IC50 at KRAS G12D was 1000 to 10000 nM; at KRAS G12S, 100 to 1000 nM; on KRAS G12V it was 100 to 1000 nM; at KRAS G13C, 100 to 1000 nM; at KRAS G13D, 1000 to 10000 nM; at KRAS Q61H, 100 to 1000 nM. The IC50 at KRAS WT fell in the range of 100 to 1000 nM; on NRAS G12C, 100 to 1000 nM; on NRAS Q61K, 1000 to 10000 nM; at NRAS Q61R, 1000 to 10000 nM; at NRAS WT, 100 to 1000 nM; on KRAS G12C, 10 to 100 nM.
For the compound `CCn1c(-c2cccnc2[C@H](C)OC)c2c3cc(ccc31)-c1cc(O)cc(c1)C[C@H](NC(=O)[C@H](C(C)C)N(C)C(=O)N1C[C@@H]3[C@H]1CCN3C(=O)[C@@H]1CN1)C(=O)N1CCC[C@H](N1)C(=O)OCC(C)(C)C2` (atropisomer, axis not shown) [Example 251], the IC50 at KRAS G12D was 1000 to 10000 nM; on KRAS G12S it was 100 to 1000 nM; on KRAS G12V, 100 to 1000 nM; on KRAS G13C, 10 to 100 nM; on KRAS G13D, 1000 to 10000 nM; on KRAS Q61H, 100 to 1000 nM. For the same compound, the 50% inhibitory concentration (IC50) on KRAS WT fell in the range of 100 to 1000 nM; on NRAS G12C it was 10 to 100 nM; at NRAS Q61K, 1000 to 10000 nM; at NRAS Q61R it was 1000 to 10000 nM; at NRAS WT, 100 to 1000 nM; on KRAS G12C, 10 to 100 nM.
On to `CCn1c(-c2cccnc2[C@H](C)OC)c2c3cc(ccc31)-c1cc(O)cc(c1)C[C@H](NC(=O)[C@H](C(C)C)N(C)C(=O)N1CC[C@@H](N(C)C(=O)[C@H]3CN3)C1)C(=O)N1CCC[C@H](N1)C(=O)OCC(C)(C)C2` (atropisomer, axis not shown) [Example 252], for which the IC50 lay in the range of 100 to 1000 nM at KRAS G12D; 100 to 1000 nM at KRAS G12S; 100 to 1000 nM at KRAS G12V; 10 to 100 nM on KRAS G13C; 100 to 1000 nM at KRAS G13D; 10 to 100 nM on KRAS Q61H. For the same compound, the half-inhibitory concentration (IC50) was 10 to 100 nM on KRAS WT; below 10 nM on NRAS G12C; 100 to 1000 nM at NRAS Q61K; 100 to 1000 nM at NRAS Q61R; 10 to 100 nM on NRAS WT; below 10 nM at KRAS G12C.
Take `CCn1c(-c2cccnc2[C@H](C)OC)c2c3cc(ccc31)-c1cc(O)cc(c1)C[C@H](NC(=O)[C@H](C(C)C)N(C)C(=O)N1CC[C@@H](N(C)C(=O)[C@@H]3CN3)C1)C(=O)N1CCC[C@H](N1)C(=O)OCC(C)(C)C2` (atropisomer, axis not shown) [Example 253]: the half-maximal inhibitory concentration (IC50) fell in the range of 100 to 1000 nM on KRAS G12D; 100 to 1000 nM at KRAS G12S; 100 to 1000 nM on KRAS G12V; 10 to 100 nM on KRAS G13C; 100 to 1000 nM at KRAS G13D; 10 to 100 nM on KRAS Q61H. Moreover, the IC50 was in the range of 10 to 100 nM at KRAS WT; 10 to 100 nM on NRAS G12C; 100 to 1000 nM at NRAS Q61K; 100 to 1000 nM at NRAS Q61R; 10 to 100 nM on NRAS WT; 10 to 100 nM at KRAS G12C.
As for `CCn1c(-c2cccnc2[C@H](C)OC)c2c3cc(ccc31)-c1cc(O)cc(c1)C[C@H](NC(=O)[C@H](C(C)C)N(C)C(=O)N1CC[C@H](N(C)C(=O)[C@H]3CN3)C1)C(=O)N1CCC[C@H](N1)C(=O)OCC(C)(C)C2` (atropisomer, axis not shown) [Example 254], the IC50 on KRAS G12D fell in the range of 100 to 1000 nM; on KRAS G12S, 100 to 1000 nM; on KRAS G12V, 100 to 1000 nM; on KRAS G13C it was 10 to 100 nM; on KRAS G13D, 100 to 1000 nM; at KRAS Q61H, 10 to 100 nM. Moreover, the IC50 lay in the range of 100 to 1000 nM on KRAS WT; 10 to 100 nM on NRAS G12C; 100 to 1000 nM at NRAS Q61K; 100 to 1000 nM on NRAS Q61R; 100 to 1000 nM at NRAS WT; 10 to 100 nM on KRAS G12C.
On to `CCn1c(-c2cccnc2[C@H](C)OC)c2c3cc(ccc31)-c1cc(O)cc(c1)C[C@H](NC(=O)[C@H](C(C)C)N(C)C(=O)N1CC[C@H](N(C)C(=O)[C@@H]3CN3)C1)C(=O)N1CCC[C@H](N1)C(=O)OCC(C)(C)C2` (atropisomer, axis not shown) [Example 255], for which the IC50 lay within 100 to 1000 nM on KRAS G12D; 10 to 100 nM on KRAS G12S; 100 to 1000 nM on KRAS G12V; 10 to 100 nM at KRAS G13C; 100 to 1000 nM on KRAS G13D; 10 to 100 nM at KRAS Q61H. Moreover, the IC50 on KRAS WT fell in the range of 100 to 1000 nM; at NRAS G12C, 10 to 100 nM; at NRAS Q61K, 100 to 1000 nM; on NRAS Q61R, 100 to 1000 nM; at NRAS WT, 10 to 100 nM; at KRAS G12C, 10 to 100 nM.
